Consider twelve molecules from patent US9181227B2, “Potent and selective inhibitors of hepatitis C virus” (Cocrystal Pharma, Inc., priority 2010, dated 2015).

In general, CC50 refers to the concentration at which the toxic effect on the cells reaches its halfway point. Low values mean greater toxicity to the cells, high ones lower toxicity to the cells.

Read-outs that look alike come from different tables or passages of the source.

What all share (assay type): cell-based
For data set [1], the system named is HCV 1b. As to the kind of experiment: HCV Replicon Assay. To be noted: Hepatitis C virus. The protocol: (§1) Huh 7 Clone B cells containing HCV Replicon RNA would be seeded in a 96-well plate at 5000 cells/well, and the compounds tested at 10 μM in triplicate immediately after seeding. Following five days incubation (37° C., 5% CO2), total cellular RNA was isolated by using versaGene RNA purification kit from Gentra. Replicon RNA and an internal control (TaqMan rRNA control reagents, Applied Biosystems) were amplified in a single step multiplex Real Time RT-PCR Assay. The antiviral effectiveness of the compounds was calculated by subtracting the threshold RT-PCR cycle of the test compound from the threshold RT-PCR cycle of the no-drug control (ΔCt HCV). A ΔCt of 3.3 equals a 1-log reduction (equal to 90% less starting material) in Replicon RNA levels. The cytotoxicity of the compounds was also calculated by using the ΔCt rRNA values. 2′-C-Me-C was used as the positive control. To determine EC90 and IC50 values^2, ΔCt: values were first converted into fraction of starting material^3 and then were used to calculate the % inhibition.
• 1. Stuyver L et al., Ribonucleoside analogue that blocks replication or bovine viral diarrhea and hepatitis C viruses in culture. Antimicrob. Agents Chemother. 2003, 47, 244-254. • 2. Reed I J & Muench H, A simple method or estimating fifty percent endpoints. Am. J. Hyg. 27: 497, 1938. • 3.
A series of additional compounds was evaluated using the methods described herein.
Background: In antiviral work, replicon cells carry a viral genome segment that copies itself.

Data set [2] in a line: Cytotoxicity in replicon cells by ΔCt rRNA values. To be noted: human, Huh 7 Clone B cells containing HCV replicon RNA. As for the experimental part:
as §1

Data set [3] relates to human PBM cells. As to the kind of experiment: Cellular toxicity assay, PBM cells. The conditions noted are these: cytotoxicity IC50, human PBM cells. As for the experimental part: (§2) The toxicity of the compounds was assessed in Vero, human PBM, CEM (human lymphoblastoid), MT-2, and HepG2 cells, as described previously (see Schinazi R. F., Sommadossi J.-P., Saalmann V., Cannon D. L., Xie M.-Y., Hart G. C., Smith G. A. & Hahn E. F. Antimicrob. Agents Chemother. 1990, 34, 1061-67). Cycloheximide was included as positive cytotoxic control, and untreated cells exposed to solvent were included as negative controls. The cytotoxicity IC50 was obtained from the concentration-response curve using the median effective method described previously (see Chou T.-C. & Talalay P. Adv. Enzyme Regul. 1984, 22, 27-55; Belen'kii M. S. & Schinazi R. F. Antiviral Res. 1994, 25, 1-11).

Data set [4] relates to CEM (human lymphoblastoid) cells. As to the kind of experiment: Cellular toxicity assay, CEM cells. The conditions noted are these: cytotoxicity IC50, CEM cells. The protocol: as §2
In data set [5] the test system is Vero cells. As to the kind of experiment: Cellular toxicity assay, Vero cells. The conditions noted are these: cytotoxicity IC50, Vero cells. The protocol: as §2
Where [6] appears, read: 120 h, Huh 7 Clone B cells containing HCV Replicon RNA, five days incubation, read-out: Replicon activity (Median Effective concentration EC50 range against HCV 1b).
Where [7] appears, read: Huh-7, 120 h, read-out: Replicon EC50 (range against HCV 1b).
The mark [8] stands for this setting: 120 h, Huh 7 Clone B cells containing HCV Replicon RNA, five days incubation, read-out: Replicon EC50 (range against HCV 1b).

As to `COC(=O)N[C@@H](CC(C)C)C(=O)N1CCC[C@H]1c1ncc(-c2ccc(-c3ccccc3)cc2)[nH]1`, the EC50 in data set [1] (setting [6]) is 100 to 999 nM.
Same read-out and setting: with `COC(=O)N[C@H](C(=O)N1CCC[C@H]1c1ncc(-c2ccc(N=[N+]=[N-])cc2)[nH]1)C(C)C` the figure was 1 to 99 nM.
Same read-out and setting: the same measure for `COC(=O)N[C@H](C(=O)N1CCC[C@H]1c1ncc(-c2ccc(-n3cc(-c4cncn4C)nn3)cc2)[nH]1)C(C)C`: 100 to 999 nM; for `C#Cc1ccc(-c2cn(-c3ccc(-c4cnc(C5CCCN5C(=O)[C@@H](NC(=O)OC)C(C)C)[nH]4)cc3)nn2)cc1` (stereo partly shown): 1 to 99 nM.
In turn, `COC(=O)N[C@H](C(=O)N1C[C@@H](n2cc(C(=O)OC)nn2)C[C@H]1c1ncc(-c2ccc(-c3ccc(-c4cnc([C@@H]5C[C@H](n6cc(C(=O)OC)nn6)CN5C(=O)[C@@H](NC(=O)OC)C(C)C)[nH]4)cc3)cc2)[nH]1)C(C)C` showed a half-maximal cytotoxic concentration (CC50) at 5 days in data set [2] above 1000 nM. In data set [1] (setting [7]), the EC50 lay within 100 to 999 nM. The same molecule returned a Toxicities PBM in data set [3] of 53 µM. Further, in data set [4], the Toxicities CEM is 13.5 µM.
In data set [2], `COC(=O)N[C@H](C(=O)N1C[C@@H](n2cc(COC(C)=O)nn2)C[C@H]1c1ncc(-c2ccc(-c3ccc(-c4cnc([C@@H]5C[C@H](n6cc(COC(C)=O)nn6)CN5C(=O)[C@@H](NC(=O)OC)C(C)C)[nH]4)cc3)cc2)[nH]1)C(C)C` gave a CC50 at 5 days above 1000 nM. Also, the EC50 in data set [1] (setting [7]) was 100 to 999 nM. The same molecule registered a Toxicities PBM in data set [3] of 53 µM. Further, the Toxicities CEM in data set [4] was 13.5 µM.
The molecule `COC(=O)N[C@H](C(=O)N1C[C@@H](SC)C[C@H]1c1ncc(-c2ccc(-c3ccc(-c4cnc([C@@H]5C[C@H](SC)CN5C(=O)[C@@H](NC(=O)OC)C(C)C)[nH]4)cc3)cc2)[nH]1)C(C)C` gave a half-maximal cytotoxic concentration (CC50) at 5 days in data set [2] above 1000 nM. In data set [1] (setting [8]), the EC50 is below 1 nM. Also, the Toxicities PBM in data set [3] is 15.6 µM. The molecule further displayed a Toxicities VERO in data set [5] of 10.9 µM. The molecule also displayed a Toxicities CEM in data set [4] of 13.3 µM.
For the molecule `COC(=O)N[C@H](C(=O)N1C[C@H](n2cc(-c3ccccc3)nn2)C[C@H]1c1ncc(-c2ccc(-c3ccc(-c4cnc([C@@H]5C[C@@H](n6cc(-c7ccccc7)nn6)CN5C(=O)[C@@H](NC(=O)OC)C(C)C)[nH]4)cc3)cc2)[nH]1)C(C)C`, the cytotoxic concentration (CC50) at 5 days in data set [2] was above 1000 nM. The EC50 in data set [1] (setting [8]) fell in the range of 1 to 99 nM. This molecule registered a Toxicities PBM in data set [3] above 100 µM. In addition, in data set [5], the Toxicities VERO is above 100 µM. In addition, the Toxicities CEM in data set [4] is above 100 µM.
The molecule `COC(=O)N[C@H](C(=O)N1C[C@H](n2ccnn2)C[C@H]1c1ncc(-c2ccc(-c3ccc(-c4cnc([C@@H]5C[C@@H](n6cc([Si](C)(C)C)nn6)CN5C(=O)[C@@H](NC(=O)OC)C(C)C)[nH]4)cc3)cc2)[nH]1)C(C)C` came in with a CC50 at 5 days in data set [2] above 1000 nM. Further, in data set [1] (setting [8]), the EC50 is 1 to 99 nM. The same molecule displayed a Toxicities PBM in data set [3] of 3 µM. The molecule also displayed a Toxicities VERO in data set [5] above 100 µM. The Toxicities CEM in data set [4] was 16.2 µM.
For `COC(=O)N[C@H](C(=O)N1C[C@H](n2cc([Si](C)(C)C)nn2)C[C@H]1c1ncc(-c2ccc(-c3ccc(-c4cnc([C@@H]5C[C@@H](n6cc([Si](C)(C)C)nn6)CN5C(=O)[C@@H](NC(=O)OC)C(C)C)[nH]4)cc3)cc2)[nH]1)C(C)C` the same measures were above 1000 nM, 1 to 99 nM, above 100 µM, above 100 µM and 25.2 µM.
Regarding `COC(=O)N[C@H](C(=O)N1CCC[C@H]1c1ncc(-c2ccc(-c3ccccc3)cc2)[nH]1)C(C)C` [Methyl ((S)-1-((S)-2-(5-([1,1′-biphenyl]-4-yl)-1H-imidazol-2-yl)pyrrolidin-1-yl)-3-methyl-1-oxobutan-2-yl)carbamate], the EC50 in data set [1] (setting [6]) lay in the range of 100 to 999 nM.
As to `COC(=O)N[C@H](C(=O)N1CCC[C@H]1c1ncc(-c2ccc(-n3cc(-c4ccccc4)nn3)cc2)[nH]1)C(C)C` [Methyl ((S)-3-methyl-1-oxo-1-((S)-2-(5-(4-(4-phenyl-1H-1,2,3-triazol-1-yl)phenyl)-1H-imidazol-2-yl)pyrrolidin-1-yl)butan-2-yl)carbamate], the EC50 in data set [1] (setting [6]) was in the range of 100 to 999 nM.
